Values quoted from earlier work, collected in Sander's compilation of Henry's law constants.

Tests used:
[1] = Henry solubility constant Hcp at 298.15 K (mol/(m3 Pa)); details: cited value
[2] = Henry solubility constant Hcp at 293 K (mol/(m3 Pa)); details: cited value
[3] = reference: Burkholder et al. (2015)
[4] = reference: Burkholder et al. (2019)
[5] = reference: Sander et al. (2006)
[6] = reference: Sander et al. (2011)
[7] = reference: Fogg and Sangster (2003)
[8] = reference: Nicholson et al. (1984)
[9] = reference: Edwards et al. (1978)
[10] = reference: Pandis and Seinfeld (1989)
[11] = reference: Barcelo and Hennion (1997)

## BrBr [bromine (molecular)]
[1]; [3]
  Henry solubility constant Hcp: 0.0072
[1]; [4]
  Henry solubility constant Hcp: 0.0072
[1]; reference: Jenkins and King (1965)
  Henry solubility constant Hcp: 0.0079
[1]; [5]
  Henry solubility constant Hcp: 0.0072
[1]; [6]
  Henry solubility constant Hcp: 0.0072
[2]; reference: Giona et al. (1969)
  Henry solubility constant Hcp at 293 K: 0.0092

## ClC(Cl)Br [bromodichloromethane]
[1]; [3]
  Henry solubility constant Hcp: 0.004
[1]; [4]
  Henry solubility constant Hcp: 0.004
[1]; [7]
  Henry solubility constant Hcp: 0.0048
[1]; reference: Goldstein (1982)
  Henry solubility constant Hcp: 0.0046
[1]; [8]
  Henry solubility constant Hcp: 0.0043
[1]; [5]
  Henry solubility constant Hcp: 0.004
[1]; [6]
  Henry solubility constant Hcp: 0.004
[2]; [8]
  Henry solubility constant Hcp at 293 K: 0.0047

## O=C=O [carbon dioxide]
[1]; [3]
  Henry solubility constant Hcp: 0.00034
[1]; [4]
  Henry solubility constant Hcp: 0.00034
[1]; reference: Carroll et al. (1991)
  Henry solubility constant Hcp: 0.00034
[1]; reference: Chen et al. (1979)
  Henry solubility constant Hcp: 0.00034
[1]; reference: Crovetto (1991)
  Henry solubility constant Hcp: 0.00034
[1]; [9]
  Henry solubility constant Hcp: 0.00034
[1]; reference: Lelieveld and Crutzen (1991)
  Henry solubility constant Hcp: 0.00034
[1]; [10]
  Henry solubility constant Hcp: 0.00034
[1]; reference: Perry and Chilton (1973)
  Henry solubility constant Hcp: 0.00034
[1]; [5]
  Henry solubility constant Hcp: 0.00033
[1]; [6]
  Henry solubility constant Hcp: 0.00033
[1]; reference: Weiss (1974)
  Henry solubility constant Hcp: 0.00034
[1]; reference: Yoo et al. (1986)
  Henry solubility constant Hcp: 0.00034
[2]; reference: Nunn (1958)
  Henry solubility constant Hcp at 293 K: 0.00039

## CC(Cc1ccc(C(C)(C)C)cc1)CN1CCCCC1 (configuration not stated) [fenpropidin]
[2]; reference: Tomlin (1998)
  Henry solubility constant Hcp at 293 K: 0.099

## CCCOC(=O)CC [propyl propanoate]
[1]; reference: Brockbank (2013)
  Henry solubility constant Hcp: 0.026

## CCCc1ccccc1 [propylbenzene]
[1]; reference: Brockbank (2013)
  Henry solubility constant Hcp: 0.00091

## C#CC(C)(C)NC(=O)c1cc(Cl)cc(Cl)c1 [propyzamide]
[1]; [11]
  Henry solubility constant Hcp: 0.052

## COC(=O)N(OC)c1ccccc1COc1ccn(-c2ccc(Cl)cc2)n1 [pyraclostrobine]
[1]; reference: MacBean (2012b)
  Henry solubility constant Hcp: 190000

## CCOC(=O)COc1cc(-c2nn(C)c(OC(F)F)c2Cl)c(F)cc1Cl [pyraflufen-ethyl]
[1]; reference: MacBean (2012b)
  Henry solubility constant Hcp: 12000

## CCCCCCCCSC(=O)Oc1cc(Cl)nnc1-c1ccccc1 [pyridate]
[1]; [11]
  Henry solubility constant Hcp: 300

## Cc1cc(C)nc(Nc2ccccc2)n1 [pyrimethanil]
[2]; reference: Tomlin (1998)
  Henry solubility constant Hcp at 293 K: 280

## [Rn] [radon]
[1]; reference: Clever (1979b)
  Henry solubility constant Hcp: 9.1e-05

## CCNc1nc(Cl)nc(NCC)n1 [simazine]
[1]; [11]
  Henry solubility constant Hcp: 29

## CCOP(=S)(OCC)OP(=S)(OCC)OCC [sulfotep]
[1]; [11]
  Henry solubility constant Hcp: 0.0099

## O=S=O [sulfur dioxide]
[1]; reference: Beilke and Gravenhorst (1978)
  Henry solubility constant Hcp: 0.012
[1]; [3]
  Henry solubility constant Hcp: 0.013
[1]; [4]
  Henry solubility constant Hcp: 0.013
[1]; [9]
  Henry solubility constant Hcp: 0.012
[1]; reference: Maahs (1982)
  Henry solubility constant Hcp: 0.012
[1]; [10]
  Henry solubility constant Hcp: 0.012
[1]; reference: Rodríguez-Sevilla et al. (2001)
  Henry solubility constant Hcp: 0.012
[1]; [5]
  Henry solubility constant Hcp: 0.013
[1]; [6]
  Henry solubility constant Hcp: 0.013
[1]; reference: Yoo et al. (1986)
  Henry solubility constant Hcp: 0.012
[1]; reference: Young (1983)
  Henry solubility constant Hcp: 0.013

## CC(C)(C)C(O)(CCc1ccc(Cl)cc1)Cn1cncn1 (configuration not stated) [tebuconazole]
[1]; [11]
  Henry solubility constant Hcp: 1100

## COP(=S)(OC)Oc1ccc(Sc2ccc(OP(=S)(OC)OC)cc2)cc1 [temefos]
[1]; [11]
  Henry solubility constant Hcp: 1.7

## Cc1[nH]c(=O)n(C(C)(C)C)c(=O)c1Cl [terbacil]
[1]; [11]
  Henry solubility constant Hcp: 550

## CCOP(=S)(OCC)SCSC(C)(C)C [terbufos]
[1]; [11]
  Henry solubility constant Hcp: 0.0099

## CCNc1nc(NC(C)(C)C)nc(SC)n1 [terbutryn]
[1]; [11]
  Henry solubility constant Hcp: 7.6

## ClC(Cl)=C(Cl)Cl [tetrachloroethene]
[1]; reference: Brockbank (2013)
  Henry solubility constant Hcp: 0.00056
[1]; [3]
  Henry solubility constant Hcp: 0.00055
[1]; [4]
  Henry solubility constant Hcp: 0.00055
[1]; reference: Dilling (1977)
  Henry solubility constant Hcp: 0.00081
[1]; reference: Dilling et al. (1975)
  Henry solubility constant Hcp: 0.00081
[1]; [7]
  Henry solubility constant Hcp: 0.0006
[1]; reference: Goldstein (1982)
  Henry solubility constant Hcp: 0.00036
